From paper PMC8003796, “Identification of Anti-Severe Acute Respiratory Syndrome-Related Coronavirus 2 (SARS-CoV-2) Oxysterol Derivatives In Vitro” (International Journal of Molecular Sciences, 2021)

What was measured:
SARS-CoV-2 [1] = experiment: SARS-CoV-2 infection assay, viral RNA in culture supernatant by real-time RT-PCR; assay type: cell-based, SARS-CoV-2 Wk-521 strain; conditions: 24 h post-inoculation; for IC90: Severe acute respiratory syndrome coronavirus 2, read-out: IC90 (90% maximal inhibitory concentration); for IC90 / IC50: viral RNA in culture supernatant, VeroE6/TMPRSS2 cells; for IC50: Severe acute respiratory syndrome coronavirus 2, read-out: IC50 (50% maximal inhibitory concentration); for effect on viral RNA (in words) / reduction of the production of viral RNA as compared to control: concentrations up to 30 μM; for reduction of the production of viral RNA as compared to control: natural oxysterols
in vitro = conditions: African green monkey
SARS-CoV-2 [2] = experiment: Viral N protein by indirect immunofluorescence; assay type: cell-based, SARS-CoV-2 Wk-521 strain; conditions: 10 μM RDV, 30 μM cholesterol, 30 μM 7-KC, 10 μM Oxy133, 10 μM Oxy210
SARS-CoV-2 [3] = experiment: Virus-induced cytopathic effect (CPE) viewed under a microscope; assay type: cell-based, SARS-CoV-2 Wk-521 strain; conditions: 48 h post-inoculation; 10 μM RDV, 30 μM cholesterol, 30 μM 7-KC, 10 μM Oxy133, 10 μM Oxy210

Compound | IC90 (SARS-CoV-2 [1]) [µM] | IC50 (SARS-CoV-2 [1]) [µM] | effect on viral RNA (in words) (SARS-CoV-2 [1]) | CC50 (in vitro) [µM] | reduction of the production of viral RNA as compared to control (SARS-CoV-2 [1]) | effect on virus propagation / spread of infection, N protein (in words) (SARS-CoV-2 [2]) | effect on SARS-CoV-2-induced CPE (in words) (SARS-CoV-2 [3])
CC(C)CCC[C@@H](C)[C@H]1CC[C@H]2[C@@H]3CC=C4[C@@H](O)[C@@H](O)CC[C@]4(C)[C@H]3CC[C@]12C [4-beta-OHC, 4beta-hydroxycholesterol] | > 30 | > 30 | did not show apparent reductions in viral RNA | > 30 |  |  | 
CC(C)CCC[C@@H](C)[C@H]1CC[C@H]2[C@@H]3C(=O)C=C4C[C@@H](O)CC[C@]4(C)[C@H]3CC[C@]12C [7-KC, 7-ketocholesterol] | > 30 | 14.5 |  | > 30 | 80%–86% | reduced | reduced the SARS-CoV-2-induced CPE
CC(C)CC[C@@H](O)[C@@H](C)[C@H]1CC[C@H]2[C@@H]3CC=C4C[C@@H](O)CC[C@]4(C)[C@H]3CC[C@]12C [22(R)-OHC, 22(R)-hydroxycholesterol] | > 30 | 13.2 |  | > 30 | 80%–86% |  | 
CC(C)CC[C@H](O)[C@@H](C)[C@H]1CC[C@H]2[C@@H]3CC=C4C[C@@H](O)CC[C@]4(C)[C@H]3CC[C@]12C [22(S)-OHC, 22(S)-hydroxycholesterol] | > 30 | > 30 | did not show apparent reductions in viral RNA | > 30 |  |  | 
CC(C)[C@@H](O)CC[C@@H](C)[C@H]1CC[C@H]2[C@@H]3CC=C4C[C@@H](O)CC[C@]4(C)[C@H]3CC[C@]12C [24(S)-OHC, 24(S)-hydroxycholesterol] | > 30 | 1.3 |  | > 30 | 80%–86% |  | 
C[C@@H](CO)CCC[C@@H](C)[C@H]1CC[C@H]2[C@@H]3CC=C4C[C@@H](O)CC[C@]4(C)[C@H]3CC[C@]12C [27-OHC, 27-hydroxycholesterol] | > 30 | 3.5 |  | > 30 | 80%–86% |  | 
CC(C)CCC[C@@H](C)[C@H]1CC[C@H]2[C@@H]3CC=C4C[C@@H](O)CC[C@]4(C)[C@H]3CC[C@]12C [Cholesterol, reference compound] | > 30 | > 30 | did not show apparent reductions in viral RNA | > 30 |  | but not cholesterol, reduced | but not cholesterol, reduced the SARS-CoV-2-induced CPE
